Literature values as cited in patent US20250339514A1, “SINGLE-AND MULTI-EPITOPE PEPTIDE AND MRNA VACCINES TO GENERATE TOLEROGENIC EFFECTS FOR ALLERGIC AND AUTOIMMUNE DISEASE BY TARGETING LIVER SINUSOIDAL ENDOTHELIAL CELLS” (The Regents of the University of California, priority 2022, published 2025).

How the values were obtained:
lupus patients = conditions: Phase 1 and Phase 2 clinical trials; cited from earlier work
MRL/lpr mice = conditions: repeated administration; cited from earlier work

**Q.** Which results are given for RIHMVYSKRpSGKPRGYAFIEY [P140]?
**A.** clinical efficacy (lupus patients): effective in treating lupus patients; T-cell epitope spreading to other U1-70K regions (MRL/lpr mice): transiently abolishing T-cell epitope spreading
